Measured values: a compilation of properties of binary mixtures (doi:10.1016/j.molliq.2022.118955)

Experiment: xn = mol fraction of the nth substance listed
Conditions: 298.15 K, 100 kPa

`CCO` + CC[n+]1ccn(C)c1.[I-] gave an electrical conductivity (x2 = 0) of 0.0001 S/m.
`CCCC[n+]1ccn(C)c1.[I-]` + CCO showed an electrical conductivity (x1 = 0.0198) of 0.493 S/m, an electrical conductivity (x1 = 0.0392) of 0.821 S/m and an electrical conductivity (x1 = 0.0676) of 1.2 S/m. It also gave an electrical conductivity (x1 = 0.148) of 1.69 S/m, an electrical conductivity (x1 = 0.2876) of 1.53 S/m and an electrical conductivity (x1 = 0.4094) of 1.1 S/m. For the same molecule, the electrical conductivity (x1 = 1) was 0.0522 S/m.
`CC[n+]1ccn(C)c1.[I-]` + CCO gave an electrical conductivity (x1 = 0.0104) of 0.33 S/m, an electrical conductivity (x1 = 0.0208) of 0.581 S/m and an electrical conductivity (x1 = 0.0477) of 1.15 S/m. The electrical conductivity (x1 = 0.0766) was 1.62 S/m, the electrical conductivity (x1 = 0.1141) was 2.09 S/m and the electrical conductivity (x1 = 0.1621) was 2.51 S/m. For the same molecule, the electrical conductivity (x1 = 0.2282) was 2.75 S/m and the electrical conductivity (x1 = 0.3112) was 2.76 S/m.
